According to patent publication US6056958A, “Method of treatment of arterial and venous thromboembolic disorders” (Dupont Pharmaceuticals, priority 1997, dated 2000):
pIC50: −log10 of the molar value. Non-standard residues stand in square brackets, D forms with d. Residues, ends and D or L forms follow the SMILES beside them. 3Amb = NCc1cccc(C(=O)O)c1

Experiments:
GPIIb/IIIa receptor = target: T1, GPIIb/IIIa receptor (Homo sapiens, UniProt P05106+P08514); experiment: GPIIb/IIIa Receptor-Biotinylated Fibrinogen Binding Assay; conditions: inhibition of fibrinogen binding to purified GPIIb/IIIa
T1 construct: The GPIIb/IIIa receptor was purified from human platelets; from tissue; host or cells: human platelets (purified according to D'Souza et al., J. Biol. Chem. 1990, 265:3440-3446)
T1 sequence (P08514 32-887 limits assumed): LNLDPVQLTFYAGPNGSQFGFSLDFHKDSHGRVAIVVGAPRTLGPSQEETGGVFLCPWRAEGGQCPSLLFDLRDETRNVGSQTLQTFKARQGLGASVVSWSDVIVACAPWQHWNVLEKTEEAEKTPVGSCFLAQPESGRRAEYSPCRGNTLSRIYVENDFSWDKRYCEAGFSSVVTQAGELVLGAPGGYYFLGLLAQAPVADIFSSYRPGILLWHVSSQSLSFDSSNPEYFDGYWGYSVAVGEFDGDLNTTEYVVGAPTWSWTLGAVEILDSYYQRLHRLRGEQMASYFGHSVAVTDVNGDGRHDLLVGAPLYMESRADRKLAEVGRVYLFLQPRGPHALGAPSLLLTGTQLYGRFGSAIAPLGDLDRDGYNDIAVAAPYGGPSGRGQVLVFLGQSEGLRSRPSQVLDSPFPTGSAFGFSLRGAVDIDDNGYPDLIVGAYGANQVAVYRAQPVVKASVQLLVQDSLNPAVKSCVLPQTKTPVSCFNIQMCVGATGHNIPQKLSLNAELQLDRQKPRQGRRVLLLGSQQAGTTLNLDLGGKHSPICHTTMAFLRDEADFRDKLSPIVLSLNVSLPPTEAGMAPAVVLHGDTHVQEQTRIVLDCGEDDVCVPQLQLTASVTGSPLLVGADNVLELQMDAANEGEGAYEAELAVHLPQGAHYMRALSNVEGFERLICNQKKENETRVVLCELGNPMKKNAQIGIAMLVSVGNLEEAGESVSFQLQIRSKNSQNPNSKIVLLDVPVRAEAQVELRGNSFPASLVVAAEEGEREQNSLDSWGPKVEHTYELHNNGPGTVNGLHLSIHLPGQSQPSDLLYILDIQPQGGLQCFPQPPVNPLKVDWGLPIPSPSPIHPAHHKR
T1 sequence (P08514 891-1039 partner limits assumed): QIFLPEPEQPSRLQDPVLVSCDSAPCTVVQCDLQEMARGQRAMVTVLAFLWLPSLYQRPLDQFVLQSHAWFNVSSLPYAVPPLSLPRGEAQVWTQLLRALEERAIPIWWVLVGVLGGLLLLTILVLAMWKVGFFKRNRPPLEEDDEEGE
T1 sequence (P05106 27-788): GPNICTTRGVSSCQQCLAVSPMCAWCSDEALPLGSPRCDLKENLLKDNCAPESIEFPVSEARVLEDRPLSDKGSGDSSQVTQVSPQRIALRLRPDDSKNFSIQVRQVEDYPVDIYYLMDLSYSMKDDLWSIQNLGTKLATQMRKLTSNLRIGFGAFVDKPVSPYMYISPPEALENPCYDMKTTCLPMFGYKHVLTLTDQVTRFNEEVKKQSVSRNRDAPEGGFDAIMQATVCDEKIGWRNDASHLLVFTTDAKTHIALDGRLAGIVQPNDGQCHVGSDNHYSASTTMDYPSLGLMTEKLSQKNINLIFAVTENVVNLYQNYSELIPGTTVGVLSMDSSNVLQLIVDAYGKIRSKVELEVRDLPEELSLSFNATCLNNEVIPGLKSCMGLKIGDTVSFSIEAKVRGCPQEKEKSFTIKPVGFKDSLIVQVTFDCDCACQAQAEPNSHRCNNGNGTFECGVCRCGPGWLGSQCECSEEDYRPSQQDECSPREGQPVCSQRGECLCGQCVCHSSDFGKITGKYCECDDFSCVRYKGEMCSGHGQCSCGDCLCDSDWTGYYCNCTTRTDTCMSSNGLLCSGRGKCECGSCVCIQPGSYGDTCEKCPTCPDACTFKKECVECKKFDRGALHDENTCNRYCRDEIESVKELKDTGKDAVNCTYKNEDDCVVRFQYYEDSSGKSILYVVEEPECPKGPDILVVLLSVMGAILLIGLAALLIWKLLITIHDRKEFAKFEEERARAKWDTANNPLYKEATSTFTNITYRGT
From the text: (§1) Compounds may be tested for their ability to block binding of vitronectin to the αv /β3 receptor and to block the binding of fibrinogen to GPIIb/IIIa receptor in the αv /β3 -Biotinylated Vitronectin Binding Assay and GPIIb/IIIa Receptor-Biotinylated Fibrinogen Binding Assay described below.
GPIIb/IIIa Receptor-Biotinylated Fibrinogen Binding Assay
The GPIIb/IIIa receptor was purified from human platelets according to D'Souza et al. (J. Biol. Chem., 1990, 265:3440-3446). The purified GPIIb/IIIa protein was coated on 96 well plates and the competition between test compound and biotinylated fibrinogen for binding to the plate-immobilized GPIIb/IIIa receptor was determined by ELISA as described below. Bound fibrinogen was detected using an avidin-alkaline phosphatase conjugate and paranitrophenol detection at […]. For IC50 determination, test agent was added at various concentrations to plates coated with purified GPIIb/IIIa protein which was followed by the addition of biotinylated fibrinogen. The inhibitory binding constant (Ki) of test agents were calculated under this assay system using standard Michaelis-Menten analysis. The IC50 is the concentration of test substance needed to block 50% of the fibrinogen binding to the GPIIb/IIIa receptor.
The following reagents may be used in the GPIIb/IIIa-fibrinogen binding ELISA:
purified GPIIb/IIIa (148.8 μg/mL);
biotinylated fibrinogen (~1 mg/mL or 3000 nM);
anti-biotin alkaline phosphatase conjugate (Sigma no. A7418);
flat-bottom, high binding, 96-well plates (Costar Cat. no. 3590);
phosphatase substrate (Sigma 104) (40 mg capsules);
bovine serum albumin (BSA) (Sigma no. A3294);
Alkaline Phosphatase buffer--0.1 M glycine-HCl, 1 mM MgCl2.6H2 O, 1 mM ZnCl2, pH 10.4;
Binding buffer--20 mM Tris-HCl, 150 mM NaCl, 1 mM CaCl2.2H2 O, 0.02% NaN3, pH 7.0;
Buffer A--50 mM Tris-HCl, 100 mM NaCl, 2 mM CaCl2.2H2 O, 0.02% NaN3, pH 7.4;
Buffer A+3.5% BSA (Blocking buffer);
Buffer A+0.1% BSA (Dilution buffer);
The following method steps are used in the GPIIb/IIIa-fibrinogen binding ELISA:
Coat plates with GPIIb/IIIa in Binding buffer (125 ng/100 μL/well) overnight at 4° C. (Leave first column uncoated for non-specific binding). Cover and freeze plates at -70° C. until used. Thaw plate 1 hour at room temperature or overnight at 4° C. Discard coating solution and wash once with 200 μL Binding buffer per well. Block plate 2 hours at room temperature on shaker with 200 μl Buffer A+3.5% BSA (Blocking buffer) per well. Discard Blocking buffer and wash once with 200 μL Buffer A+0.1% BSA (Dilution buffer) per well. Pipet 11 μL of test compound (10× the concentration to be tested in Dilution buffer) into duplicate wells. […] Read plate at 405 nm. Blank against non-specific binding (NSB) well. % Inhibition is calculated as 100-(Test Compound Abs/Total Abs)×100.

Platelet Aggregation = Platelet Aggregation Assay (in vitro, ADP-induced, platelet-rich plasma); format: cell-based, mongrel dogs or human
Protocol: Platelet Aggregation Assay
Venous blood was obtained from anesthetized mongrel dogs or from healthy human donors who were drug-free and aspirin-free for at least two weeks prior to blood collection. Blood was collected into citrated Vacutainer tubes. The blood was centrifuged for 15 minutes at 150× g (850 RPM in a Sorvall RT6000 Tabletop Centrifuge with H-1000 B rotor) at room temperature, and platelet-rich plasma (PRP) was removed. The remaining blood was centrifuged for 15 minutes at 1500× g ([…]) at room temperature, and platelet-poor plasma (PPP) was removed. Samples were assayed on an aggregometer (PAP-4 Platelet Aggregation Profiler), using PPP as the blank (100% transmittance). 200 μL of PRP (5×10^8 platelets/mL) were added to each micro test tube, and transmittance was set to 0%. 20 μl of ADP (10 μM) was added to each tube, and the aggregation profiles were plotted (% transmittance versus time). Test agent (20 μL) was added at different concentrations prior to the addition of the platelet agonist. Results are expressed as % inhibition of agonist-induced platelet aggregation.

αv /β3 receptor = target: T2, αv /β3 receptor (Homo sapiens, UniProt P05106+P06756); experiment: αv/β3-Biotinylated Vitronectin Binding Assay; conditions: for pIC50: inhibition of vitronectin binding to purified αv/β3; for Relative Binding Affinity for αv /β3 Relative to GPIIb/IIIa: ratio of IC50 values (GPIIb/IIIa over αv/β3)
T2 construct: The αv /β3 receptor was isolated from human placental extracts prepared using octylglucoside; from tissue
T2 sequence (P06756 31-889 limits assumed): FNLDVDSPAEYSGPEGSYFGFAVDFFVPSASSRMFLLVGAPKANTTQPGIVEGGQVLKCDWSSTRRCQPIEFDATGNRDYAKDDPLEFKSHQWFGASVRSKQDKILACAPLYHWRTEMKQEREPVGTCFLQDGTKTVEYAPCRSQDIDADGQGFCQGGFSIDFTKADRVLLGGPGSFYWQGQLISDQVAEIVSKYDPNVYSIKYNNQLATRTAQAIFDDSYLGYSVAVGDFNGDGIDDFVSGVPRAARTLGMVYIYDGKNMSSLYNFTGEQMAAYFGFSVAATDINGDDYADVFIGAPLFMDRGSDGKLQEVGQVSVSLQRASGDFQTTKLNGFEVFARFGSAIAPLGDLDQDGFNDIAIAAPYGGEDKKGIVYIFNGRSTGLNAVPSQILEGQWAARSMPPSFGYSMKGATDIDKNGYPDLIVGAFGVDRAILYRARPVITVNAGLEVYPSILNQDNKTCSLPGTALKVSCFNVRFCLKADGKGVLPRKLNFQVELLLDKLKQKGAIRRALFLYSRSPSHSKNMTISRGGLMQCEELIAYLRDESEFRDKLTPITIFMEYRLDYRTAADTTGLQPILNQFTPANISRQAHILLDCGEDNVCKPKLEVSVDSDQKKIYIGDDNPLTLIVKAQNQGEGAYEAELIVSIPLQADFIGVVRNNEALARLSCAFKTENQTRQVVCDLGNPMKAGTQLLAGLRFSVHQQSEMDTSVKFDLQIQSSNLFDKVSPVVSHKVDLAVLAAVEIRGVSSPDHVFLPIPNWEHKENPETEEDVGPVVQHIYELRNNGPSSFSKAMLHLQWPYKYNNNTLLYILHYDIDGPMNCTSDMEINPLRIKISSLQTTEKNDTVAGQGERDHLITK
T2 sequence (P06756 891-1048 partner limits assumed): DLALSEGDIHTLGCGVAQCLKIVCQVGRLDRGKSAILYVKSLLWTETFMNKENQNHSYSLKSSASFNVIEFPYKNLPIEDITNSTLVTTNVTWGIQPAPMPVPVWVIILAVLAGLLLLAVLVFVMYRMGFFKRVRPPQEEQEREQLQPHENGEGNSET
T2 sequence (P05106 27-788): as the sequence (P05106 27-788) above
From the text: as §1
αv /β3 -Biotinylated Vitronectin Binding Assay
The αv /β3 receptor was isolated from human placental extracts prepared using octylglucoside. The extract was passed over an anti-αv /β3 monoclonal antibody (LM609) affinity column (prepared using LM609 and Affigel 10). The column was subsequently washed extensively at pH 7 and pH 4.5 followed by elution at pH 3. The resulting sample was concentrated by wheat germ agglutinin chromatography to provide a αv /β3 -containing sample which gave two bands on SDS-PAGE which were confirmed as αv /β3 by western blotting.
The affinity purified αv /β3 protein as described above was diluted at different levels and plated to 96 well plates (about 15 ng of αv /β3 protein per well). ELISA detection of αv /β3 -bound biotinylated vitronectin was performed as described below using fixed concentration of biotinylated vitronectin (approximately 80 nM/well). This αv /β3 receptor preparation contains the αv /β3 with no detectable levels of αv /β5 according to the gel and according to effects of blocking antibodies for the αv /β3 or αv /β5 in the ELISA.
A submaximal concentration of biotinylated vitronectin was selected based on concentration response curves with fixed αv /β3 receptor concentration and variable concentrations of biotinylated vitronectin.
The purified αv /β3 receptor is diluted with coating buffer (20 mM Tris HCl, 150 mM NaCl, 2.0 mM CaCl2, 1.0 mM MgCl2.6H2 O, 1.0 mM MnCl2.4H2 O) and coated (100 μL/well) on Costar (3590) high capacity 96-well plates overnight at 4° C. The coating solution is discarded and the plates washed once with blocking/binding buffer (B/B buffer: 50 mM Tris HCl, 100 mM NaCl, 2.0 mM CaCl2, 1.0 mM MgCl2.6H2 O, 1.0 mM MnCl2.4H2 O). The plate-immobilized αv /β3 receptor is then blocked (200 μl/well) with 3.5% BSA in B/B buffer for 2 hours at room temperature. After washing once with 1.0% BSA in B/B buffer, biotinylated vitronectin (100 μL) and either test compound (inhibitor) (11 μL) or B/B buffer w/1.0% BSA (11 μL) is added to each well. The plates are incubated 2 hours at room temperature. The plates are washed twice with B/B buffer and incubated 1 hour at room temperature with anti-biotin alkaline phosphatase (100 μL/well) in B/B buffer containing 1.0% BSA. The plates are washed twice with B/B buffer and alkaline phosphatase substrate (100 μL) is added. Color is developed at room temperature. Color development is stopped by addition of 2N NaOH (25 μL/well) and absorbance is read at 405 nm.
The inhibitory binding constant (Ki) of test agents 30 may be calculated under this assay system using Michaelis-Menten analysis. The IC50 is the concentration of test substance needed to block 50% of the vitronectin binding to the αv /β3 receptor. The IC50 for the inhibition of binding of vitronectin to the αv /β3 receptor was determined based on time averaged values for the inhibition of vitronectin binding. Thus, the inhibition of vitronectin binding for each concentration of test compound was measured every 30 seconds over a 2 hour period and the average value of inhibition of vitronectin binding over such 2 hour period was used for the determination of the IC50.

[1] = tested on: canine thrombosis model (carotid artery); experiment: Carotid artery reocclusion in canine thrombosis model with tPA; format: in vivo; conditions: dog carotid
Protocol: Compounds useful in the method of the present invention are useful for the prevention of reocclusion as an adjunct to fibrinolytic therapy, as shown in the animal model tests described below. The effect of compound A in combination with tPA on the incidence of carotid artery reocclusion in dogs was assessed using a protocol as described by Mousa et al., Circulation 1994, 89:3-12.

[2] = tPA 0.5 mg locally, 1.5 mg IV bolus, compound A 0.1 mg/kg IV bolus + 0.4 mg/kg IV infusion 3 hr, mean ± SD

| Compound | pIC50 (GPIIb/IIIa receptor) | pIC50 (Platelet Aggregation) | pIC50 (αv /β3 receptor) | Relative Binding Affinity for αv /β3 Relative to GPIIb/IIIa (αv /β3 receptor) | Blood Flow, Basal ([1]; basal, tPA with or without compound A, mean ± SD) [cm/s] | Blood Flow, End ([1]; end, tPA with or without compound A) [cm/s] | Blood Flow, Reperfusion ([1]; reperfusion, tPA with or without compound A, mean ± SD) [cm/s] | Thrombus Weight (wet, mg) [1, 2] [mg] | Time to Occlusion [1, 2] [min] | Time to Reocclusion [1, 2] [min] | Time to Reperfusion [1, 2] [min] |
| --- | --- | --- | --- | --- | --- | --- | --- | --- | --- | --- | --- |
| N=C(N)NCCC[C@@H]1NC(=O)[C@H](CCCCN)NC(=O)c2cccc(c2)CNC(=O)[C@H](CC(=O)O)NC(=O)CNC1=O [Compound D, cyclo-(Lys-Arg-Gly-Asp-Mamb)] (cyclo(RGD[3Amb]K)) | 6.44 | 4.64 | 8.72 | 189 | – | – | – | – | – | – | – |
| CC(C)C[C@@H]1NC(=O)c2cccc(c2)CNC(=O)[C@H](CC(=O)O)NC(=O)CNC(=O)[C@H](CCCNC(=N)N)NC1=O [Compound E, cyclo-(Leu-Arg-Gly-Asp-Mamb)] (cyclo(RGD[3Amb]L)) | 6.37 | 4.39 | 8.85 | 307 | – | – | – | – | – | – | – |
| tPA: tissue plasminogen activator, thrombolytic agent | – | – | – | – | 30 ± 2.5 | 0 | 24.2 ± 8 | 36.2 ± 19.4 | 80 ± 25 | 23 ± 10 | 15 ± 10 |
